Laboratory results as given in patent publication US12016865B2, “Methods and pharmaceutical compositions for treating candida auris in blood” (Cormedix Inc., priority 2017, dated 2024).

Tests used:
[1] = tested on: Microbes; details: microbes killed and toxins inactivated; cited from earlier work
[2] = stored at ambient conditions; cited from earlier work
[3] = water buffered at pH 7.2; cited from earlier work
[4] = tested on: C. auris blood-borne pathogens; assay: treating C. auris blood-borne pathogens (FIG. 2); set-up: species or system Candida auris; details: blood-borne infection of C. auris
From the text: FIG. 2 is a table showing the effectiveness of treating a blood-borne infection of C. auris using taurolidine and/or taurolidine derivatives.

[5] = cited from earlier work
[6] = cited from earlier work; remark: listed apart in the source
[7] = saturated solution in deionized water; cited from earlier work

Question: With O=S1(=O)CCN(CN2CCS(=O)(=O)NC2)CN1 [taurolidine, 4,4′-methylene-bis(tetrahydro-1,2,4-thiadiazine)-1,1,1′,1′,-tetraoxide] as the compound, how does the “destruction time in vitro” value [1] read?
Answer: approximately 30 minutes

Question: What about the “stability in the solid state” value [2] of the same compound?
Answer: acceptable stability

Question: What about the “apparent partition coefficient between octanol and water” value [3] of the same compound?
Answer: approximately 0.13

Question: What about the “effect on C. auris blood-borne pathogens” value [4] of the same compound?
Answer: neutralize C. auris blood-borne pathogens

Question: And the “solubility in CHCl3” value ([5]; CHCl3)?
Answer: insoluble

Question: And the “solubility in Dilute HCl” value ([5]; Dilute HCl)?
Answer: soluble

Question: And the “solubility in Dilute NaOH” value ([5]; Dilute NaOH)?
Answer: soluble

Question: And the “solubility in EtOH” value ([5]; EtOH)?
Answer: sparingly soluble

Question: And the “solubility in Water” value ([5]; Water, at 20 degrees C.)?
Answer: 1%

Question: And the “cumulative dose shown safe and well tolerated” value ([6]; cumulative doses)?
Answer: > 300 g

Question: What about the “systemic dose shown safe and well tolerated” value ([6]; systemic doses) of the same compound?
Answer: exceeding 40 g/day

Question: And the “pH of saturated solution” value [7]?
Answer: 7.4
